# Data taken from patent US20170247693A1 (priority 2016, published 2017).
# Like-named read-outs stand apart in the source and are kept apart here.
# Columns and labels:
# caspase-3 [1] = assay type: cell-based; conditions: FLC4 infected with vACE-NT; normoxia; 72 h after administering DOX
# HepG2 tumors = assay type: in vivo, SCID mice
# caspase-3 [2] = assay type: cell-based, human; conditions: HepG2 infected with vACE-NT; normoxia; 72 h after administering DOX
# [3] = system: uveal melanoma cells (Mel270, OMM2.3, OMM2.5, OMM1, 92.1); assay type: cell-based
structure (smiles),measurement,setting,value
"COc1cccc2c1C(=O)c1c(O)c3c(c(O)c1C2=O)C[C@@](O)(C(=O)CO)C[C@@H]3O[C@H]1C[C@H](N)[C@H](O)[C@H](C)O1 [DOX, Doxorubicin]",increase of caspase-3 activation,caspase-3 [1],12 fold
same,reduction of tumor growth rate,"HepG2 tumors; DOX 55 mg/kg IP twice a week, tumors infected with vACE-NT, light emission day 42 vs day 14",45%
same,effect on tumors,"HepG2 tumors; DOX 75 mg/kg IP twice a week, even in vACE-NT infected tumors",almost completely eradicate the tumors
same,growth rate of tumors on addition of DOX,"HepG2 tumors; all tumors (vACE-NT, vACE-CREB, vACE-X3 infected), DOX 55 mg/kg",reduced the growth rate of all tumors
same,increase of caspase-3 activation,caspase-3 [2],35 fold
same,cell death in uveal melanoma cells,[3],induce cell death
